From patent US7226761B2, “Manufacture of five-carbon sugars and sugar alcohols” (Danisco Sweeteners Oy, priority 1992, dated 2007)

T1: DOG1 (Saccharomyces cerevisiae, UniProt P38774)
T1 construct: expressed in transfected cells; host or cells: S. cerevisiae H1104 (W303-1B) transformed with plasmid B1020 (YEplac195, ADH1 promoter-DOG1-ADH1 terminator) = strain H1514; crude cell extract
T1 sequence (P38774 1-246): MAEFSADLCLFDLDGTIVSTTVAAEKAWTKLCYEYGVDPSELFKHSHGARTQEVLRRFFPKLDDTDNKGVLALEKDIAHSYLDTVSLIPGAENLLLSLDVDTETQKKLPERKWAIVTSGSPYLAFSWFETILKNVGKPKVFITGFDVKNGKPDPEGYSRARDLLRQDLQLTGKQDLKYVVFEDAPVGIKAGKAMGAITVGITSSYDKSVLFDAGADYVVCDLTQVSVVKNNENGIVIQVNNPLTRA

B1: Pichia stipitis XDH: xylitol dehydrogenase encoded by the XYL2 gene from Pichia stipitis, expressed in yeast on pAOS67 (protein, UniProt P22144 1-363, looked up)
D-xylulose reductase: MTANPSLVLNKIDDISFETYDAPEISEPTDVLVQVKKTGICGSDIHFYAHGRIGNFVLTKPMVLGHESAGTVVQVGKGVTSLKVGDNVAIEPGIPSRFSDEYKSGHYNLCPHMAFAATPNSKEGEPNPPGTLCKYFKSPEDFLVKLPDHVSLELGALVEPLSVGVHASKLGSVAFGDYVAVFGAGPVGLLAAAVAKTFGAKGVIVVDIFDNKLKMAKDIGAATHTFNSKTGGSEELIKAFGGNVPNVVLECTGAEPCIKLGVDAIAPGGRFVQVGNAAGPVSFPITVFAMKELTLFGSFRYGFNDYKTAVGIFDTNYQNGRENAPIDFEQLITHRYKFKDAIEAYDLVRAGKGAVKCLIDGPE
B2: arabitol-phosphate dehydrogenase: arabitol-phosphate dehydrogenase purified from Enterococcus avium ATCC 35655, SEQ ID NO:69 (protein)
chain: MSKTMKGVSKQAPGYDQMAFIDLSVPEATDDKVLIKVAYTGICGSDIHTFKGEYKNPTTPVVLGHEFSGQVVEVGANVTKVKVGDRVTSETTFYVCGECDYCKEKQYNLCPHRKGIGTQQNGSMANYVLAREESIHLLPDHLSYEGAAMSEPLACCVHAMYQKSHLELKDTIIIMGPGPIGLYLLQIAKEIGAFVIMTGITKDAHRLALAKKLGADVIVDTMKEDLAKVVNEITDGYGVDKVYDASGAVPAVNASLPLIRKQGQFIQVGLFANKMVDLDTESIIQREIEYIGSRSQNPYDWPIAIHLLAKGAINIDEMITKKYPLTEWREAFDKVMEGNEIKVMIESNPEEF
modifications: Bacillus halodurans
B3: Saccharomyces cerevisiae XDH: enzyme having xylitol dehydrogenase activity encoded by S. cerevisiae ORF YLR070c, expressed on B1163 (protein, UniProt Q07993 1-356, looked up)
D-xylulose reductase: MTDLTTQEAIVLERPGKITLTNVSIPKISDPNEVIIQIKATGICGSDIHYYTHGRIANYVVESPMVLGHESSGIVALIGENVKTLKVGDRVALEPGIPDRFSPEMKEGRYNLDPNLKFAATPPFDGTLTKYYKTMKDFVYKLPDDVSFEEGALIEPLSVAIHANKLAKIKFGARCVVFGAGPIGLLAGKVASVFGAADVVFVDLLENKLETARQFGATHIVNSGDLPHGVTVDSVIKKAIGKKGADVVFECSGAEPCVRAGIEVCKAGGTIVQVGMGQEEIQFPISIIPTKELTFQGCFRYCQGDYSDSIELVSSRKLSLKPFITHRYSFKDAVEAFEETSHHPLNNIKTIIEGPE

How the values were obtained:
DOG1 [1] = target: T1, DOG1; settings: 40 mM substrate; relative to 2-deoxyglucose-6-P as 100%; cited from earlier work
DOG1 [2] = target: T1, DOG1; experiment: Specificity of DOG1 towards sugar phosphates in yeast cell extracts (phosphate release); assay type: biochemical, S. cerevisiae; settings: 20 mM substrate; cell extract of H1514; relative to 2-deoxyglucose-6-P as 100%
Protocol: The specificity of DOG1 towards xylulose-5-P, ribulose-5-P, ribose-5-P and 2-deoxyglucose-6-P was determined using 20 mM substrate concentrations. Yeast cell extracts were prepared as described in example 15, except that 50 mM imidazole-HCl, 10 mM MgCl2 buffer, pH 6.0 was used. 10 μl of extract and 210 μl of substrate (20 mM) in the same buffer was incubated for 30 min, 30° C. The reaction was stopped with final 2% of TCA and the phosphate released was measured using ammonium molybdate (15 mM), zinc acetate (100 mM), pH 5.0 as the reagent. The formation of molybdenum blue was measured at 350 nm, and quantified by phosphate standards (Sanz, P. et al., Yeast 10:1195–1202 (1994); Bencini, D. A. et al., Anal. Biochem. 132:254–258 (1983)).

[3] = XDH activity assay in yeast cell extracts, reaction started with D-ribulose; assay type: biochemical; settings: 1 mM D-ribulose; 0.2 mM NADH; pH 7.0; cell extract
Text: (§1) The xylitol dehydrogenases of P. stipitis, Trichoderma reesei and S. cerevisiae were investigated regarding their specificities towards their sugar substrates. Each of the XDH encoding genes was expressed on multi-copy vectors pAOS67, B1070 and B1163, respectively (see Example 12). Yeast strain H1104 (pAOS67, B1163) and H1052 (B1070) harboring each of the multi-copy vectors, H1160, H1886 and H1748, respectively, were cultivated on SCD medium lacking the appropriate selection marker (histidine, leucine, uracil, respectively). Cells were collected by centrifugation and washed twice with 100 mM sodium phosphate buffer pH 7.0. Cells were resuspended at a concentration of 500 mg/ml wet weight, corresponding approximately to 75 mg/ml dry weight, in the same buffer. 1 ml of this suspension was vortexed with 1 g glass beads (0,5 mm Ø) for 15 min. at 4° C., centrifuged in an Eppendorf centrifuge (13,000 rpm) and the supernatant was assayed. XDH activity was assayed in a medium containing 50 mM Pipes KOH pH 7.0, 0.2 mM NADH. The reaction was started by addition of D-xylulose or D-ribulose at a final concentration of 1 mM. The activity was measured by following the adsorption of NADH at 340 nm.

[4] = XDH activity assay in yeast cell extracts, reaction started with D-xylulose; assay type: biochemical; settings: 1 mM D-xylulose; 0.2 mM NADH; pH 7.0; cell extract
Text: as §1

[5] = Xylulose 5-phosphate reductase (XPDH/APDH) activity assay with NADH; assay type: biochemical; settings: 5 mM xylulose 5-phosphate as the substrate
Protocol: The strain BD 170 [pGTK24(MXD2)] as well as untransformed strain BD 170 was grown overnight on either LB or LB, containing 10% glucose, cell extracts were prepared and the XDH activity measured. The assay conditions for measuring XDH activity were: 30° C., 50 mM Tris-HCI, pH 7.0, 0.2 mM NADH and 10 mM D-xylulose. Changes of absorption at 340 nm were recorded; one unit of activity was defined as the amount of enzyme that catalyzed the reduction of one […] of substrate per minute under the conditions of assay (assuming the differential absorption coefficient NADH/NAD^+ to be equal to […]). The following levels of XDH activity were measured in the strain BD170 [pGTK24(MXD2)] grown on the two media: LB—0.5 U/mgproteins, LB-glucose 0.05–0.15 U/mgprotein. Thus, glucose appeared to repress the activity of the aldolase promoter 3–10 fold. No XDH activity could be detected in the strain BD170 grown on either of the two media.
B. subtilis strain BD170 was transformed with pGTK74(LRXPDH) and pGTK74(BHDH2). The transformants were grown overnight in LB containing 25 mg/liter kanamycin, cell extract were prepared by sonication and the activity of XPDH activity was measured. The conditions for measuring the XPDH activity were similar to those used for measuring the xylitol dehydrogenase activity except that xylulose 5-phosphate was used as the substrate (usually at 5 mM concentration) instead of xylulose. The activities were approximately 0.3 U/mg protein for the XPDH from L. rhamnosus and about 0.5 U/mg protein for B. halodurans enzyme.
Enterococcus avium ATCC 35655 was cultivated at 30° C. in 5 liters of a medium containing: peptone—10 g/l, yeast extract—5 g/l, beef extract 10 g/l, K2HPO4 2 g/l, NaCl—5 g/l, MgSO4—0.02 g/l, MnCl2—0.05 g/l, ammonium citrate 2 g/l, Tween 20—1.1 ml/l, xylitol—20g/l, pH 6.5. […]

[6] = Stereospecificity of D-xylulose 5-phosphate reduction, products dephosphorylated and analyzed by HPLC; assay type: biochemical; settings: 10 mM xylulose 5-phosphate, 10 mM NADH, pH 7.0, 37° C.
Protocol: The stereospecificity of xylulose-phosphate reduction by the B. halodurans XPDH was verified by the following procedure. The reaction between D-xylulose 5-phosphate and NADH was conducted at 37° C. for several hours under the following conditions: 100 mM Tris-HC buffer, pH 7.0, 10 mM xylulose 5-phosphate, 10 mM NADH, […] the enzyme lysate. The reaction products were dephosphorylated with alkaline phosphatase and analyzed by HPLC. […] It should be noted that among the highest-scoring four homologues of the L. rhamnosus XPDH, the enzyme from B. holodurans is the least homologous. This can be interpreted as an indication that the other three homologues (SEQ ID NO:51, 52 and 53) are most probably also xylitol-phosphate dehydrogenases.
The stereospecificity of D-xylulose 5-phosphate reduction by the E. avium arabitol-phosphate dehydrogenase was verified by the following procedure. The reaction between D-xylulose 5-phosphate and NADH was conducted at 37° C. for several hours under the following conditions: 100 mM Tris-HCl buffer, pH 7.0, 10 mM xylulose 5-phosphate, 10 mM NADH, 1U of the enzyme. The reaction products were dephosphorylated with alkaline phosphatase and analyzed by HPLC. […] There are no other arabitol-phosphate dehydrogenases described in the art.
Both arabitol-phosphate dehydrogenase genes were expressed using the same tools and methods as those used for the expression of xylitol-phosphate dehydrogenases (Example 26). Briefly, the coding regions of the two arabitol-phosphate dehydrogenase genes were amplified using the chromosomal DNA of the microorganism from which the enzyme was isolated and the appropriate PCR primers. In the case of E. avium the primers were oAPDH 51 […] SEQ ID NO: 71) and the anti-sense primer oAPDH 31 […]) SEQ ID NO: 72. For B. halodurans, the sense primer was oBHDH 5 ([…], SEQ ID NO: 73) and the anti-sense primer was oBHDH 3 ([…], SEQ ID NO: 74). […] The stereospecificity of D-xylulose 5-phosphate reduction by the previously unknown enzyme from B. halodurans was determined as described in Example 30.

Row | Molecule | Activity reported in the literature (40 mM) (DOG1 [1]) [%] | Relative activity (20 mM) (DOG1 [2]) [%] | specific activity towards D-ribulose, normalized to D-xylulose activity being 100% [3] [%] | specific activity towards D-xylulose, normalized to D-xylulose activity being 100% [4] [%] | also measured
1 | O=CC[C@@H](O)[C@H](O)[C@H](O)COP(=O)(O)O [2-deoxyglucose-6-P, 2-deoxyglucose-6-phosphate] | 100 | 100 |  |  | 
2 | O=C[C@H](O)[C@H](O)[C@H](O)COP(=O)(O)O [ribose-5-P, ribose-5-phosphate] | 42 | 52 |  |  | 
3 | O=C(CO)[C@H](O)[C@H](O)COP(=O)(O)O [ribulose-5-P, ribulose-5-phosphate] | 7 | 6 |  |  | 
4 | B1 |  |  | 25 | 100 | 
5 | B2 |  |  |  |  | specific activity of purified enzyme [5]: about 12 U/mgprotein; products found in the reaction mixture / stereospecificity [6]: Only arabitol and xylulose (corresponding to the unreacted xylulose 5-phosphate) were found
6 | B3 |  |  | 10 | 100 | 
